According to ChEMBL document CHEMBL1201862, “PubChem BioAssay data set” (2004):
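Compound exposure: 48 hours, 5 concentrations, 96-well plates. GI50 is the concentration that inhibits growth by half.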 Calls of active or inactive are those of the source. Cut-off read from the data, not from the text of the source: active = GI50 up to about 1.1 µM and inactive = higher.

What was measured:
Test in all cases: NCI-60 cell line screen, 48 h
[1] = system: BT-549
[2] = system: CAKI-1
[3] = system: CCRF-CEM
[4] = system: HCT-15
[5] = system: HL-60
[6] = system: HOP-62
[7] = system: HT-29
[8] = system: K562
[9] = system: LOX IMVI
[10] = system: MCF7
[11] = system: MDA-N
[12] = system: NCI-H522
[13] = system: SF-268
[14] = system: SK-MEL-28
[15] = system: SR
[16] = system: SW-620
[17] = system: T47D
[18] = system: U-251
[19] = system: UO-31
[20] = system: RPMI-8226

| SMILES | GI50 [1] | GI50 [2] | GI50 [3] | GI50 [4] [µM] | GI50 [5] | GI50 [6] | GI50 [7] | GI50 [8] | GI50 [9] | GI50 [10] | GI50 [11] | GI50 [12] | GI50 [13] | GI50 [14] | GI50 [15] | GI50 [16] | GI50 [17] | GI50 [18] | GI50 [19] | GI50 [20] |
| --- | --- | --- | --- | --- | --- | --- | --- | --- | --- | --- | --- | --- | --- | --- | --- | --- | --- | --- | --- | --- |
| CC(C)C(C/C=C1/CC(CO)(COC(=O)C(C)(C)C)OC1=O)C(C)C (centres undefined) | 13.5 µM (inactive) | 3.3 µM (inactive) | 12.1 µM (inactive) | 16.9 | 0.105 µM (active) | 1.03 µM (active) | 16.7 µM (inactive) | 0.171 µM (active) | 12.3 µM (inactive) | 18.4 µM (inactive) | 4.3 µM (inactive) | 12.6 µM (inactive) | 10.8 µM (inactive) | 15.9 µM (inactive) | 14.9 µM (inactive) | 3.31 µM (inactive) | 4.52 µM (inactive) | 12.6 µM (inactive) | 4.07 µM (inactive) | – |
| CCOC(=O)c1ccc(C(=O)C(C(C)=O)C(=O)OC(C)(C)C)n1C (centres undefined) | > 100 µM (inactive) | > 100 µM (inactive) | 71.3 µM (inactive) | > 100 | 67.9 µM (inactive) | > 100 µM (inactive) | > 100 µM (inactive) | > 100 µM (inactive) | > 100 µM (inactive) | > 100 µM (inactive) | > 100 µM (inactive) | > 100 µM (inactive) | > 100 µM (inactive) | > 100 µM (inactive) | 57.4 µM (inactive) | > 100 µM (inactive) | > 100 µM (inactive) | > 100 µM (inactive) | > 100 µM (inactive) | > 100 µM (inactive) |
| O=C(O)c1ccc(C2=Nc3cccc4cccc(c34)N2)cc1 | > 100 µM (inactive) | > 100 µM (inactive) | 24.7 µM (inactive) | > 100 | 19.6 µM (inactive) | > 100 µM (inactive) | > 100 µM (inactive) | > 100 µM (inactive) | > 100 µM (inactive) | > 100 µM (inactive) | > 100 µM (inactive) | 82.6 µM (inactive) | > 100 µM (inactive) | > 100 µM (inactive) | 30.6 µM (inactive) | > 100 µM (inactive) | 57.9 µM (inactive) | > 100 µM (inactive) | > 100 µM (inactive) | > 100 µM (inactive) |
| CCN1CCN(c2ccc(Nc3ccnc4ccc5c(nnn5C)c34)cc2)CC1 | 17.3 µM (inactive) | 5.48 µM (inactive) | 4.6 µM (inactive) | 3.95 | 4.94 µM (inactive) | 5.05 µM (inactive) | 3.72 µM (inactive) | 3.61 µM (inactive) | 3.14 µM (inactive) | 4.44 µM (inactive) | 3.52 µM (inactive) | 1.1 µM (active) | 6.46 µM (inactive) | 11.1 µM (inactive) | 2.51 µM (inactive) | 3.93 µM (inactive) | 16 µM (inactive) | 5.69 µM (inactive) | 10.2 µM (inactive) | – |
| O=[N+]([O-])c1cc(CCl)ccc1CCl | 3.07 µM (inactive) | 1.35 µM (inactive) | 0.504 µM (active) | 1.84 | 2.11 µM (inactive) | 1.54 µM (inactive) | 1.71 µM (inactive) | 2.24 µM (inactive) | 1.85 µM (inactive) | 1.63 µM (inactive) | 1.87 µM (inactive) | 1.73 µM (inactive) | 1.99 µM (inactive) | 2.06 µM (inactive) | 0.893 µM (active) | 2.17 µM (inactive) | 0.676 µM (active) | 1.75 µM (inactive) | 1.66 µM (inactive) | 1.48 µM (inactive) |
| CC(=O)Nc1ccc(Nc2nc(=O)[nH]c(=O)[nH]2)cc1 | > 100 µM (inactive) | > 100 µM (inactive) | > 100 µM (inactive) | > 100 | > 100 µM (inactive) | > 100 µM (inactive) | > 100 µM (inactive) | – | > 100 µM (inactive) | > 100 µM (inactive) | > 100 µM (inactive) | > 100 µM (inactive) | > 100 µM (inactive) | > 100 µM (inactive) | > 100 µM (inactive) | > 100 µM (inactive) | > 100 µM (inactive) | > 100 µM (inactive) | 28.6 µM (inactive) | > 100 µM (inactive) |
| O=C1CC(=O)NC(NN2C(=O)/C(=C/C(=O)c3ccco3)N=C2c2ccccc2)=N1 | 36.6 µM (inactive) | > 100 µM (inactive) | 20.6 µM (inactive) | > 100 | – | > 100 µM (inactive) | > 100 µM (inactive) | – | – | 95.1 µM (inactive) | 77.3 µM (inactive) | 17.7 µM (inactive) | > 100 µM (inactive) | > 100 µM (inactive) | 14.6 µM (inactive) | 73.6 µM (inactive) | 70.1 µM (inactive) | 47.5 µM (inactive) | 57.8 µM (inactive) | – |
| COc1c(C)c2c(c(=O)c3c(C)cccc3n2C)c2c1c(=O)c1c(C)cccc1n2C | > 10 µM (inactive) | > 10 µM (inactive) | > 10 µM (inactive) | > 10 | > 10 µM (inactive) | > 10 µM (inactive) | > 10 µM (inactive) | > 10 µM (inactive) | > 10 µM (inactive) | > 10 µM (inactive) | > 10 µM (inactive) | > 10 µM (inactive) | > 10 µM (inactive) | > 10 µM (inactive) | > 10 µM (inactive) | – | > 10 µM (inactive) | > 10 µM (inactive) | > 10 µM (inactive) | 9.27 µM (inactive) |
| Cc1cc(S(=O)(=O)NC2=Nc3cccc(F)c3CN2)c(S)cc1Cl | > 100 µM (inactive) | > 100 µM (inactive) | 57.4 µM (inactive) | 69.5 | 96.8 µM (inactive) | – | – | – | 50.9 µM (inactive) | 61.7 µM (inactive) | 66.4 µM (inactive) | 52.6 µM (inactive) | 76.9 µM (inactive) | 95.9 µM (inactive) | 48.5 µM (inactive) | 53.6 µM (inactive) | 28.1 µM (inactive) | 44.5 µM (inactive) | 87.5 µM (inactive) | 24.8 µM (inactive) |
| COc1ccc(C(=O)/C=C/c2ccncc2)cc1OC | 6.22 µM (inactive) | 15.7 µM (inactive) | 4.02 µM (inactive) | 15.4 | 2.04 µM (inactive) | 16.3 µM (inactive) | 8.93 µM (inactive) | 2.31 µM (inactive) | 1.47 µM (inactive) | 3.74 µM (inactive) | 13.1 µM (inactive) | 7.73 µM (inactive) | 13.7 µM (inactive) | 17.3 µM (inactive) | 6.49 µM (inactive) | – | 12.6 µM (inactive) | 11.2 µM (inactive) | 14.9 µM (inactive) | – |
| COc1cccc2cc(C(=O)NC34CC5CC(CC(C5)C3)C4)c(=N)oc12 | > 80.7 µM (inactive) | 99.5 µM (inactive) | 8.04 µM (inactive) | 49.8 | 3.13 µM (inactive) | 53.1 µM (inactive) | 47.1 µM (inactive) | 50.9 µM (inactive) | > 52.8 µM (inactive) | 13.2 µM (inactive) | > 100 µM (inactive) | 23.4 µM (inactive) | 78.9 µM (inactive) | > 71 µM (inactive) | 10.2 µM (inactive) | 49.9 µM (inactive) | 18.2 µM (inactive) | 55.3 µM (inactive) | 2.67 µM (inactive) | 25.6 µM (inactive) |
| CSc1ncnc2c1cnn2Cc1cnnn1COCC(O)CO (centres undefined) | > 100 µM (inactive) | > 100 µM (inactive) | > 100 µM (inactive) | > 100 | > 100 µM (inactive) | > 100 µM (inactive) | > 100 µM (inactive) | > 100 µM (inactive) | > 100 µM (inactive) | > 100 µM (inactive) | > 100 µM (inactive) | 11.1 µM (inactive) | 13.8 µM (inactive) | > 100 µM (inactive) | > 100 µM (inactive) | > 100 µM (inactive) | > 100 µM (inactive) | > 100 µM (inactive) | > 100 µM (inactive) | > 100 µM (inactive) |
| O=C1NC(N2CCCCC2)=N/C1=C\c1ccccc1 | > 100 µM (inactive) | > 100 µM (inactive) | > 100 µM (inactive) | > 100 | > 100 µM (inactive) | > 100 µM (inactive) | > 100 µM (inactive) | – | > 100 µM (inactive) | > 100 µM (inactive) | > 100 µM (inactive) | > 100 µM (inactive) | > 100 µM (inactive) | > 100 µM (inactive) | > 100 µM (inactive) | > 100 µM (inactive) | > 100 µM (inactive) | > 100 µM (inactive) | > 100 µM (inactive) | > 100 µM (inactive) |
| CCCC/C=C1\CCC(CN2CCOCC2)C1=O (centres undefined) | 3.56 µM (inactive) | 1.92 µM (inactive) | 0.724 µM (active) | – | 1.57 µM (inactive) | 15.7 µM (inactive) | 3.48 µM (inactive) | 1.19 µM (inactive) | 1.24 µM (inactive) | 1.53 µM (inactive) | 10.7 µM (inactive) | 0.809 µM (active) | 11.5 µM (inactive) | 3.24 µM (inactive) | 1.73 µM (inactive) | 2.1 µM (inactive) | 5.19 µM (inactive) | 3.53 µM (inactive) | 4.22 µM (inactive) | 0.15 µM (active) |
| COc1cc2c(cc1OC(=O)c1cc3ccccc3[nH]1)N=C[C@@H]1CCCN1C2=O | 0.638 µM (active) | 0.294 µM (active) | 0.255 µM (active) | 0.475 | – | 0.363 µM (active) | 0.185 µM (active) | 0.306 µM (active) | 0.332 µM (active) | 0.397 µM (active) | 0.194 µM (active) | 0.157 µM (active) | 0.706 µM (active) | 0.531 µM (active) | 0.174 µM (active) | 0.325 µM (active) | 0.851 µM (active) | 0.292 µM (active) | 0.129 µM (active) | 0.334 µM (active) |
